TGI and GI50 data for seven compounds are collected here from PubChem BioAssay (NCI).

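How tested: cells in 96-well plates exposed to compound for 48 hours at five concentrations. Abbreviation: GI50, concentration required for 50% inhibition of growth. TGI marks complete inhibition of growth.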

Some test systems named below: PC-3 prostate; BT-549 breast; EKVX NSCLC; HOP-62 NSCLC; DU-145 prostate; T-47D breast; HL-60(TB) leukemia; SF-539 CNS; HCT-116 colon; 786-0 renal.
Holding throughout (experiment): NCI anticancer screen, dose series, 48 h

On to `N/C(=N\OC(=O)NC(Cl)=C(Cl)Cl)c1cc(C(F)(F)F)cc(C(F)(F)F)c1`, for which the TGI turned out to be 38.9 µM in the experiment on PC-3 prostate; 41.2 µM in the experiment on BT-549 breast; 27 µM in the experiment on EKVX NSCLC; 34.2 µM in the experiment with HOP-62 NSCLC; 27 µM with DU-145 prostate; 25.7 µM with T-47D breast. The TGI in the experiment on HL-60(TB) leukemia was 30 µM; with SF-539 CNS it was 29.9 µM; in the experiment with HCT-116 colon, 35.5 µM; with 786-0 renal it was 31.2 µM.

Regarding `CN(C)CCCNC(=O)c1cc2c3ccccc3[nH]c2c2ncccc12`, the GI50 in the experiment with PC-3 prostate is 24.9 µM; with BT-549 breast, 9.33 µM; with EKVX NSCLC, 15.3 µM; with HOP-62 NSCLC, 5.99 µM; with DU-145 prostate it was 19.7 µM; with T-47D breast, 19.4 µM. For the same compound, the GI50 was 16 µM in the experiment on HL-60(TB) leukemia, 10.8 µM in the experiment with SF-539 CNS, 9.46 µM in the experiment with HCT-116 colon and 11.7 µM in the experiment on 786-0 renal. For the same compound, the TGI in the experiment with PC-3 prostate was over 100 µM; in the experiment with BT-549 breast, 25.1 µM; with EKVX NSCLC, 85.4 µM; in the experiment on HOP-62 NSCLC it was 36.1 µM; in the experiment on DU-145 prostate, over 100 µM; in the experiment with T-47D breast it was 61.2 µM. For the same compound, the TGI with HL-60(TB) leukemia came to 41.7 µM; in the experiment with SF-539 CNS it was 23.4 µM; with HCT-116 colon, 49.2 µM; in the experiment on 786-0 renal, 42.4 µM.

Turning to `C[C@@H]1CN(Cc2ccc(/C=C/c3n[nH]c4ccc5nc(-c6cn[nH]c6C(F)(F)F)c6c(c5c34)CCCC6)cc2)C[C@H](C)O1`, the GI50 is 3.93 µM in the experiment with PC-3 prostate; 3.09 µM in the experiment with BT-549 breast; 3.7 µM with EKVX NSCLC; 4.6 µM in the experiment with HOP-62 NSCLC; 4.53 µM with DU-145 prostate; 6.66 µM in the experiment on T-47D breast. The GI50 is 6.32 µM in the experiment on HL-60(TB) leukemia, 2.97 µM in the experiment on SF-539 CNS, 1.37 µM in the experiment on HCT-116 colon and 4.09 µM with 786-0 renal. For the same compound, the TGI in the experiment with PC-3 prostate turned out to be 18.8 µM; in the experiment with BT-549 breast it was 14.8 µM; in the experiment with EKVX NSCLC, 17.3 µM; with HOP-62 NSCLC, 30.8 µM; with DU-145 prostate, 16.9 µM; in the experiment on T-47D breast it was 26.4 µM. The TGI worked out at 28.5 µM with HL-60(TB) leukemia, 14.7 µM in the experiment with SF-539 CNS, 11.3 µM with HCT-116 colon and 17.5 µM with 786-0 renal.

For `O=C(CCCn1ccnc1[N+](=O)[O-])NCCn1cnc([N+](=O)[O-])c1`, the TGI in the experiment with PC-3 prostate, with BT-549 breast, in the experiment on EKVX NSCLC, in the experiment on HOP-62 NSCLC, in the experiment with DU-145 prostate and with T-47D breast was over 100 µM throughout. The TGI in the experiment with HL-60(TB) leukemia, in the experiment with SF-539 CNS, with HCT-116 colon and with 786-0 renal was over 100 µM each time.

`c1ccc(-c2n(Cc3ccc4ccccc4n3)c3ccccc3[n+]2Cc2ccc3ccccc3n2)cc1`: the GI50 in the experiment with PC-3 prostate was 0.23 µM; in the experiment on BT-549 breast, 0.31 µM; in the experiment on EKVX NSCLC it was 0.693 µM; in the experiment with HOP-62 NSCLC, 0.446 µM; in the experiment with DU-145 prostate, 0.417 µM; with T-47D breast, 0.193 µM. The GI50 is 0.151 µM in the experiment on HL-60(TB) leukemia, 0.354 µM with SF-539 CNS, 0.247 µM in the experiment with HCT-116 colon and 1.03 µM in the experiment on 786-0 renal. The TGI amounted to 1.35 µM with PC-3 prostate; 1.32 µM with BT-549 breast; 4.27 µM with EKVX NSCLC; 1.95 µM with HOP-62 NSCLC; 5.55 µM in the experiment with DU-145 prostate; 1.96 µM in the experiment with T-47D breast. Moreover, the TGI in the experiment with HL-60(TB) leukemia was determined as 0.62 µM; in the experiment on SF-539 CNS it was 1.4 µM; with HCT-116 colon it was 1.19 µM; in the experiment on 786-0 renal it was 2.33 µM.

Take `Clc1ccccc1-c1nc2ccccc2[nH]1`: the GI50 in the experiment with PC-3 prostate, in the experiment on BT-549 breast, in the experiment with EKVX NSCLC, with HOP-62 NSCLC, in the experiment with DU-145 prostate and in the experiment on T-47D breast was over 100 µM in each case. The GI50 in the experiment on HL-60(TB) leukemia, in the experiment on SF-539 CNS, in the experiment with HCT-116 colon and in the experiment on 786-0 renal was over 100 µM throughout. The TGI in the experiment on PC-3 prostate, in the experiment with BT-549 breast, in the experiment on EKVX NSCLC, with HOP-62 NSCLC, in the experiment with DU-145 prostate and in the experiment with T-47D breast was over 100 µM in each case. The TGI in the experiment on HL-60(TB) leukemia, with SF-539 CNS, in the experiment on HCT-116 colon and with 786-0 renal was over 100 µM throughout.

For the compound `O=C1OCC2=C1C(c1cccc(F)c1)c1cc3c(cc1N2CCO)OCCO3` (stereo not given), the GI50 is 0.195 µM in the experiment on PC-3 prostate; 0.417 µM in the experiment with BT-549 breast; 0.306 µM in the experiment on EKVX NSCLC; 0.31 µM with HOP-62 NSCLC; 0.22 µM with DU-145 prostate; 0.203 µM with T-47D breast. Besides, the GI50 in the experiment with HL-60(TB) leukemia is 0.137 µM; in the experiment with SF-539 CNS, 0.141 µM; with HCT-116 colon it was 0.204 µM; in the experiment with 786-0 renal, 0.208 µM. Also, the TGI is over 50 µM in the experiment with PC-3 prostate; 11.4 µM in the experiment with BT-549 breast; over 50 µM in the experiment with EKVX NSCLC; over 50 µM in the experiment with HOP-62 NSCLC; over 50 µM in the experiment on DU-145 prostate; over 50 µM in the experiment on T-47D breast. The TGI in the experiment on HL-60(TB) leukemia was 0.387 µM; in the experiment with SF-539 CNS it was 0.831 µM; in the experiment with HCT-116 colon, over 50 µM; with 786-0 renal, over 50 µM.
